# According to ChEMBL document CHEMBL4422646, “Synthesis and biological evaluation of 3-amino-, 3-alkoxy- and 3-aryloxy-6-(hetero)arylpyridazines as potent antitumor agents” (Bioorg Med Chem Lett, 2019):
# Activity calls are given as the source filed them. The rule behind the calls is not given here.
# What was measured:
# Huh-7 [1] = experiment: Antiproliferative activity against human HuH7 cells after 48 hrs by Hoechst 33342 staining-based assay; type: functional, cell-based; conditions: Huh-7, 48 h
# Huh-7 [2] = experiment: Antiproliferative activity against human HuH7 cells at 0.1 to 25 uM after 48 hrs by Hoechst 33342 staining-based assay relative to control; type: functional
# Caco-2 = experiment: Antiproliferative activity against human Caco2 cells after 48 hrs by Hoechst 33342 staining-based assay; type: functional, cell-based; conditions: Caco-2, 48 h
# MDA-MB-231 [3] = experiment: Antiproliferative activity against human MDA-MB-231 cells after 48 hrs by Hoechst 33342 staining-based assay; type: functional, cell-based; conditions: MDA-MB-231, 48 h
# MDA-MB-231 [4] = experiment: Antiproliferative activity against human MDA-MB-231 cells at 0.1 to 25 uM after 48 hrs by Hoechst 33342 staining-based assay relative to control; type: functional
# HCT-116 [5] = experiment: Antiproliferative activity against human HCT116 cells after 48 hrs by Hoechst 33342 staining-based assay; type: functional, cell-based; conditions: HCT-116, 48 h
# HCT-116 [6] = experiment: Antiproliferative activity against human HCT116 cells at 0.1 to 25 uM after 48 hrs by Hoechst 33342 staining-based assay relative to control; type: functional
# PC-3 [7] = experiment: Antiproliferative activity against human PC3 cells after 48 hrs by Hoechst 33342 staining-based assay; type: functional, cell-based; conditions: PC-3, 48 h
# NCI-H727 [8] = experiment: Antiproliferative activity against human NCI-H727 cells after 48 hrs by Hoechst 33342 staining-based assay; type: functional, cell-based; conditions: NCI-H727, 48 h
# NCI-H727 [9] = experiment: Antiproliferative activity against human NCI-H727 cells at 0.1 to 25 uM after 48 hrs by Hoechst 33342 staining-based assay relative to control; type: functional
# HaCaT [10] = experiment: Antiproliferative activity against human HaCaT cells after 48 hrs by Hoechst 33342 staining-based assay; type: cell-based
# HaCaT [11] = experiment: Antiproliferative activity against human HaCaT cells at 0.1 to 25 uM after 48 hrs by Hoechst 33342 staining-based assay relative to control; type: cell-based
# Fibroblast [12] = experiment: Antiproliferative activity against human fibroblast cells after 48 hrs by Hoechst 33342 staining-based assay; type: cell-based
# [13] = molecular target: Mitogen-activated protein kinase; ERK1/ERK2 (Homo sapiens) (UniProt P27361+P28482); experiment: Inhibition of EGF-stimulated p44/42 phosphorylation in human MDA-MB-468-Luc cells at 10^-5 M pre-incubated for 1 hr before EGF stimulation for 15 mins by Western blot analysis relative to control; type: cell-based
# Mitogen-activated protein kinase; ERK1/ERK2 (Homo sapiens), sequence (P27361 whole entry, looked up): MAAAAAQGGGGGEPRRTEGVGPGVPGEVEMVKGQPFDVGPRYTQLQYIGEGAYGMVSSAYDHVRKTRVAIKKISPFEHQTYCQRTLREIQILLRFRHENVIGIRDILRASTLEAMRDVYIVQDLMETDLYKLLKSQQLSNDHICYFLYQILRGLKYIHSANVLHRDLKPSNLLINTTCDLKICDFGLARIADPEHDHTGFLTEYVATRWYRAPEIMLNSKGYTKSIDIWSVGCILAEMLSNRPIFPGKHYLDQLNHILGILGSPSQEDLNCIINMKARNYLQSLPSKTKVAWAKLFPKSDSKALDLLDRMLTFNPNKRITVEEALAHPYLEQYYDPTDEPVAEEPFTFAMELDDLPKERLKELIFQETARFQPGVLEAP
# Mitogen-activated protein kinase; ERK1/ERK2 (Homo sapiens), sequence (P28482 whole entry, looked up): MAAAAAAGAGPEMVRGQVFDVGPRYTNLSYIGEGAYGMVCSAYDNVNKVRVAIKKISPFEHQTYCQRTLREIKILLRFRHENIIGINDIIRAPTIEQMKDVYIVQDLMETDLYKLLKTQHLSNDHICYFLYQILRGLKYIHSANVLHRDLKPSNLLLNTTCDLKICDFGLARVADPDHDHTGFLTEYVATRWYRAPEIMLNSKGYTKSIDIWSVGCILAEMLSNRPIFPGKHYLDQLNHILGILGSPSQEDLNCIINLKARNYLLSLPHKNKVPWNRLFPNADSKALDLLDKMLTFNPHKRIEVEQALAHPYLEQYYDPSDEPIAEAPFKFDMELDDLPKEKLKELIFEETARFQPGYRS
# MDA-MB-468 = experiment: Anticlonogenic activity against human MDA-MB-468 cells harboring luciferase reporter gene after 2 weeks by Giemsa staining-based assay; type: functional, cell-based; conditions: MDA-MB-468, 336 h
# [14] = molecular target: RAC-alpha serine/threonine-protein kinase (Homo sapiens) (UniProt P31749); experiment: Inhibition of EGF-stimulated Akt phosphorylation in human MDA-MB-468-Luc cells at 10^-5 M pre-incubated for 1 hr before EGF stimulation for 15 mins by Western blot analysis relative to control; type: cell-based
# RAC-alpha serine/threonine-protein kinase (Homo sapiens), sequence (P31749 whole entry): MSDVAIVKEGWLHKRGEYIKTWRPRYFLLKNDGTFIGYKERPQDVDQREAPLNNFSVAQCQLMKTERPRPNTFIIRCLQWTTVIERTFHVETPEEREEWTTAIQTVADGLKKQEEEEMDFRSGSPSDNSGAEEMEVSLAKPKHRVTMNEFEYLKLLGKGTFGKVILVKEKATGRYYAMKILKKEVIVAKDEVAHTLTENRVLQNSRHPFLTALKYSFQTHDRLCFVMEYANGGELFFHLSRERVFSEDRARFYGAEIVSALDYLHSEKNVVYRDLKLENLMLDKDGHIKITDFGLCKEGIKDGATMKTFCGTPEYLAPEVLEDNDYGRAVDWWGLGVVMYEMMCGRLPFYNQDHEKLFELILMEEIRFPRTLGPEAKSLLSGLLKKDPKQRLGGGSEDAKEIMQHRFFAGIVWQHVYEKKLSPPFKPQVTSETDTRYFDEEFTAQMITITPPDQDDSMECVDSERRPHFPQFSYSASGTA
# PC-3 [15] = experiment: Antiproliferative activity against human PC3 cells at 0.1 to 25 uM after 48 hrs by Hoechst 33342 staining-based assay relative to control; type: functional
# Fibroblast [16] = experiment: Antiproliferative activity against human fibroblast cells at 0.1 to 25 uM after 48 hrs by Hoechst 33342 staining-based assay relative to control; type: cell-based
# HepaRG = experiment: Hepatotoxicity in human HepaRG cells at 2.5 uM after 48 hrs; type: toxicity, cell-based
# [17] = Toxicity in zebrafish embryos assessed as alive embryo at 0.8 uM after 72 hrs; parameters: species or system Danio rerio; conditions: in vivo
# [18] = Toxicity in zebrafish embryos assessed as effect on embryo mobility at 0.8 uM after 72 hrs; parameters: species or system Danio rerio; conditions: in vivo
# [19] = Toxicity in zebrafish embryos assessed as effect on embryo development at 0.8 uM after 72 hrs; parameters: species or system Danio rerio; conditions: in vivo
# [20] = Toxicity in zebrafish embryos assessed as reduction in eye size at 0.8 uM after 72 hrs; parameters: species or system Danio rerio; conditions: in vivo
# [21] = Toxicity in zebrafish embryos assessed as reduction in eye size at 2.5 uM after 72 hrs; parameters: species or system Danio rerio; conditions: in vivo
# [22] = Toxicity in zebrafish embryos at 2.5 uM after 72 hrs; parameters: species or system Danio rerio; conditions: in vivo
IC50 (Huh-7 [1]),IC50 (Caco-2),IC50 (MDA-MB-231 [3]),IC50 (HCT-116 [5]),IC50 (PC-3 [7]),IC50 (NCI-H727 [8]),inhibition [13],IC50 (MDA-MB-468),inhibition [14],Compound,Activity (Huh-7 [2]),Activity (MDA-MB-231 [4]),Activity (HCT-116 [6]),Activity (NCI-H727 [9]),IC50 (HaCaT [10]),Activity (HaCaT [11]),IC50 (Fibroblast [12]),Activity (PC-3 [15]),Activity (Fibroblast [16]),further results
25000 nM,15000 nM,5000 nM,6000 nM,> 25000 nM,25000 nM,< 50%,650 nM,,CCN(CC)c1ccc(-c2ccc(C(C)=O)cc2)nn1,80%,60%,100%,80%,20000 nM,80%,> 25000 nM,,,
> 25000 nM,> 25000 nM,> 25000 nM,> 25000 nM,> 25000 nM,30000 nM,,,,CCOC(=O)c1cccc(-c2ccc(N(CC)CC)nn2)c1,,,,40%,> 25000 nM,,> 25000 nM,,,
> 25000 nM,> 25000 nM,> 25000 nM,> 25000 nM,> 25000 nM,> 25000 nM,inactive,3500 nM,inactive,COC(=O)c1ccc(-c2ccc(N(C)C)nn2)cc1,,,,,,,> 25000 nM,,,
> 25000 nM,> 25000 nM,> 25000 nM,> 25000 nM,> 25000 nM,> 25000 nM,inactive,26000 nM,inactive,CCOC(=O)c1ccc(-c2ccc(N(C)C)nn2)cc1,,,,,,,> 25000 nM,,,
90 nM,250 nM,140 nM,60 nM,90 nM,90 nM,70%,15 nM,> 70%,CCN(CC)c1ccc(-c2ccc(C(=O)OC)cc2)nn1,60%,60%,100%,60%,80 nM,85%,100 nM,72%,40%,Activity (HepaRG): Non-Toxic; Activity [17]: Non-Toxic; Activity [18]: Non-Toxic; Activity [19]: Non-Toxic; Activity [20]: Non-Toxic; Activity [21]: Toxic; Activity [22]: Toxic
12 nM,,60 nM,< 1 nM,< 1 nM,,,,,CC(=O)O[C@H]1C(=O)[C@@]2(C)[C@H]([C@H](OC(=O)c3ccccc3)[C@]3(O)C[C@H](OC(=O)[C@H](O)[C@@H](NC(=O)c4ccccc4)c4ccccc4)C(C)=C1C3(C)C)[C@]1(OC(C)=O)CO[C@@H]1C[C@@H]2O [PACLITAXEL],50%,60%,90%,,2 nM,70%,< 1 nM,60%,30%,
30 nM,90 nM,12 nM,50 nM,80 nM,30 nM,,,,COc1cccc2c1C(=O)c1c(O)c3c(c(O)c1C2=O)C[C@@](O)(C(=O)CO)C[C@@H]3O[C@H]1C[C@H](N)[C@H](O)[C@H](C)O1 [DOXORUBICIN],40%,50%,80%,60%,30 nM,70%,5 nM,80%,40%,
9000 nM,4000 nM,1500 nM,500 nM,1000 nM,1500 nM,70%,120 nM,Active,CCOC(=O)c1ccc(-c2ccc(N(CC)CC)nn2)cc1,60%,70%,90%,60%,500 nM,80%,3000 nM,80%,40%,Activity (HepaRG): Non-Toxic; Activity [17]: Non-Toxic; Activity [18]: Non-Toxic; Activity [19]: Non-Toxic; Activity [22]: Toxic

Compound,IC50 (Huh-7 [1]),IC50 (Caco-2),IC50 (MDA-MB-231 [3]),IC50 (HCT-116 [5]),IC50 (PC-3 [7]),IC50 (NCI-H727 [8]),inhibition [13],IC50 (MDA-MB-468),inhibition [14],Activity (Huh-7 [2]),Activity (MDA-MB-231 [4]),Activity (HCT-116 [6]),Activity (NCI-H727 [9]),IC50 (HaCaT [10]),Activity (HaCaT [11]),IC50 (Fibroblast [12]),Activity (PC-3 [15]),Activity (Fibroblast [16]),further results
CC[C@H](CO)Nc1nc(NCc2ccccc2)c2ncn(C(C)C)c2n1 [SELICICLIB],20000 nM,,,9000 nM,12000 nM,,,,,90%,80%,100%,40%,12000 nM,80%,12000 nM,8%,40%,
